Reference: ChEMBL document CHEMBL1126669, “A remarkable change of opioid receptor selectivity on the attachment of a peptidomimetic kappa address element to the delta antagonist, natrindole: 5'-[N2-alkylamidino)methyl]naltrindole derivatives as a novel class of kappa opioid receptor antagonists” (J Med Chem, 1993)

Tests used:
[1] = biological target: Opioid receptors; delta & kappa (Homo sapiens) (UniProt P41145+P41143); assay: Selectivity ratio is IC50 value of kappa-opioid receptor to that of delta-opioid receptor; type: protein assay
Sequence of Opioid receptors; delta & kappa (Homo sapiens) (P41143 whole entry, looked up): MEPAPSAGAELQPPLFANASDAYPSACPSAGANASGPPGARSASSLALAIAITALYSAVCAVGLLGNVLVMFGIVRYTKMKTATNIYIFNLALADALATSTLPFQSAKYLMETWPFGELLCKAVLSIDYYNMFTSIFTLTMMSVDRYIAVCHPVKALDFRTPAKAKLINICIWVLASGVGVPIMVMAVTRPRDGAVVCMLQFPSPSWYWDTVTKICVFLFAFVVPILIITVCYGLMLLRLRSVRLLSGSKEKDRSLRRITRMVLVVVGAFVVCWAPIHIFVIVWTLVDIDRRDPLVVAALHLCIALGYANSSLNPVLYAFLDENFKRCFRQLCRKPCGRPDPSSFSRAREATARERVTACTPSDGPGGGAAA
Sequence of Opioid receptors; delta & kappa (Homo sapiens) (P41145 whole entry, looked up): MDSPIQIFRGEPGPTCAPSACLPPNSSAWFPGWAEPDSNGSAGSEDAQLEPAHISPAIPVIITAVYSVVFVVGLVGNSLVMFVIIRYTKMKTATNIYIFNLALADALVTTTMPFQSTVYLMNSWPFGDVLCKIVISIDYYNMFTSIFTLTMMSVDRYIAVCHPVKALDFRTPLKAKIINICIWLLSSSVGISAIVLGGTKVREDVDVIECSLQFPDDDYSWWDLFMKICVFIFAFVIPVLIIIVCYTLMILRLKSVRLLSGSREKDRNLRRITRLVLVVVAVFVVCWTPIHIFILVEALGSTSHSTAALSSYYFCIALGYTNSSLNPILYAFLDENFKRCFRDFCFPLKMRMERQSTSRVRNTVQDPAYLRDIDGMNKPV

Mu-type opioid receptor = Mu-type opioid receptor (Cavia porcellus, UniProt P97266); assay: Binding affinity for mu opioid receptor was determined using radioligand [3H][D-Ala2,MePhe4,Gly-ol6]enkephalin (DAMGO) in Guinea pig brain membranes.; type: cell membranes
Sequence of Mu-type opioid receptor (P97266 whole entry): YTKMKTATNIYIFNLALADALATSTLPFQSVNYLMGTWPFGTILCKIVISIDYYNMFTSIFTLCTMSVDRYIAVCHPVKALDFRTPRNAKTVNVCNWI

[2] = biological target: Delta-type opioid receptor (Mus musculus) (UniProt P32300); assay: Ratio of IC50 of [D-Ala2,D-Leu5]enkephalin (DADLE) in the presence (100 nM) to that of [(DADLE) alone, against delta opioid receptor in mouse vas deferens preparation
Sequence of Delta-type opioid receptor (Mus musculus) (P32300 whole entry): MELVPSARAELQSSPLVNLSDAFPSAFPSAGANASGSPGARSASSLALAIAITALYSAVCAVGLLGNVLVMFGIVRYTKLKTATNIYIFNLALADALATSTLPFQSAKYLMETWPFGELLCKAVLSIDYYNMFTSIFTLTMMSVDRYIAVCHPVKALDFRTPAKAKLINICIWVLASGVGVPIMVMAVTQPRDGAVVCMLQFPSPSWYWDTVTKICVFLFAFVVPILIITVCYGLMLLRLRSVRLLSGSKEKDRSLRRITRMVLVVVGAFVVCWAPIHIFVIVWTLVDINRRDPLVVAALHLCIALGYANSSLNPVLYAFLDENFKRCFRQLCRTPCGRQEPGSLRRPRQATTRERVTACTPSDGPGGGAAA

[3] = biological target: Opioid receptors; mu & kappa (Homo sapiens) (UniProt P41145+P35372); assay: Selectivity ratio is IC50 value of kappa-opioid receptor to that of mu-opioid receptor; type: protein assay
Sequence of Opioid receptors; mu & kappa (Homo sapiens) (P35372 whole entry, looked up): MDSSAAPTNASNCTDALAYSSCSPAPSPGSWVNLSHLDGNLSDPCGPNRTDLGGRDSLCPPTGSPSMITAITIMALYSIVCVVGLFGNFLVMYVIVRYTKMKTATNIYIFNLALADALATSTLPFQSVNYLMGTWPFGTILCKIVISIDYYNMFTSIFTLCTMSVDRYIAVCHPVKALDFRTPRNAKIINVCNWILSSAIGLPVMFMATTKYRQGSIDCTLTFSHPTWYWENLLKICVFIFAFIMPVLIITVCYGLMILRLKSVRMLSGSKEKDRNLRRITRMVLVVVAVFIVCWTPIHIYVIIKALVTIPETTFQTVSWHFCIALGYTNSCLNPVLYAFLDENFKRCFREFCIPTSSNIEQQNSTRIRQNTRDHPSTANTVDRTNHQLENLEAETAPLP
Sequence of Opioid receptors; mu & kappa (Homo sapiens) (P41145 whole entry, looked up): as the sequence (P41145 whole entry, looked up) above

[4] = biological target: Kappa-type opioid receptor (Cavia porcellus) (UniProt P41144); assay: Ratio of IC50 of ethylketazocine (EK) in the presence (100 nM) to that of ethylketazocine (EK) alone, against kappa opioid receptor in Guinea pig ileum preparation; type: tissue-based
Sequence of Kappa-type opioid receptor (Cavia porcellus) (P41144 whole entry): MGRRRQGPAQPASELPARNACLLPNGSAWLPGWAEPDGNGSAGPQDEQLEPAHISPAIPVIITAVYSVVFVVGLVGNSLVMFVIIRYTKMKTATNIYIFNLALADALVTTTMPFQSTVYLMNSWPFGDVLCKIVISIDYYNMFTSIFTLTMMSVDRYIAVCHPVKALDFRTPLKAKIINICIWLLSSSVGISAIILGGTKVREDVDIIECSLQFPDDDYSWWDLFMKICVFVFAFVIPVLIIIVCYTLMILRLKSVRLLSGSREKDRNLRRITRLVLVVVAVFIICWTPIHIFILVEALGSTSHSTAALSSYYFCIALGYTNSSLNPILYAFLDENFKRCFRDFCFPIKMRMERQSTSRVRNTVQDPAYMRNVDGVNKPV

[5] = biological target: Mu-type opioid receptor (Cavia porcellus) (UniProt P97266); assay: Ratio of IC50 of morphine (M) in the presence (100 nM) to that of morphine (M) alone, against mu opioid receptor in Guinea pig ileum preparation.; type: tissue-based
Sequence of Mu-type opioid receptor (Cavia porcellus) (P97266 whole entry): as the sequence (P97266 whole entry) above

[6] = biological target: Kappa-type opioid receptor (Cavia porcellus, UniProt P41144); assay: Binding affinity for k opioid receptor was determined using [3H]U-69593 radioligand in Guinea pig brain membranes; type: cell membranes, Membrane
Sequence of Kappa-type opioid receptor (P41144 whole entry): as the sequence (P41144 whole entry) above

Row | Structure (SMILES) | Selectivity ratio [1] | Ki (Mu-type opioid receptor) | IC50 ratio [2] | Selectivity ratio [3] | IC50 ratio [4] | IC50 ratio [5] | Ki [6]
1 | CCCCC(=N)NCc1ccc2[nH]c3c(c2c1)C[C@@]1(O)[C@H]2Cc4ccc(O)c5c4[C@@]1(CCN2CC1CC1)C3O5 (stereo partly specified) | 93 | 3.5 nM | 4.71 | 28 | 439 | 15.7 | 0.061 nM
2 | CCCC(=N)NCc1ccc2[nH]c3c(c2c1)C[C@@]1(O)[C@H]2Cc4ccc(O)c5c4[C@@]1(CCN2CC1CC1)C3O5 (stereo partly specified) | 62 | – | 3 | 10 | 185 | 19.3 | –
3 | Oc1ccc2c3c1O[C@H]1c4[nH]c5c(c4C[C@@]4(O)[C@@H](C2)N(CC2CC2)CC[C@]314)C[C@@]1(O)[C@H]2Cc3ccc(O)c4c3[C@@]1(CCN2CC1CC1)[C@H]5O4 [NORBINALTORPHIMINE] | – | – | – | – | – | – | 0.28 nM
4 | CCC(=N)NCc1ccc2[nH]c3c(c2c1)C[C@@]1(O)[C@H]2Cc4ccc(O)c5c4[C@@]1(CCN2CC1CC1)C3O5 (stereo partly specified) | 69 | – | 2.28 | 14 | 159 | 11.3 | –
5 | Oc1ccc2c3c1O[C@H]1c4[nH]c5ccccc5c4C[C@@]4(O)[C@@H](C2)N(CC2CC2)CC[C@]314 | – | – | 459 | – | 1.3 | 11.2 | –
